Data taken from ChEMBL document CHEMBL1201862, “PubChem BioAssay data set” (2004).
Active and inactive are the calls of the source.

How the values were obtained:
[1] = HEK-293T viability loss after treatment – luminescence, T-cell screen hits, cytotoxicity control for TCR NF-kB inhibitor project, dose response (AID 489026); type: functional, cell-based;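 also: cells exposed to compound about 14 hours before the viability readout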
[2] = target: Induced myeloid leukemia cell differentiation protein Mcl-1 (Homo sapiens, UniProt Q07820); type: functional
[3] = target: T1, Glutathione-S-transferase (Schistosoma japonicum, UniProt Q26513); assay: GST-antibody interaction or FRET quenching – biochemical, TR-FRET, artefact control for Vif-APOBEC3G degradation inhibitor project, dose response (AID 1117362); type: functional
T1 sequence (Q26513 whole entry): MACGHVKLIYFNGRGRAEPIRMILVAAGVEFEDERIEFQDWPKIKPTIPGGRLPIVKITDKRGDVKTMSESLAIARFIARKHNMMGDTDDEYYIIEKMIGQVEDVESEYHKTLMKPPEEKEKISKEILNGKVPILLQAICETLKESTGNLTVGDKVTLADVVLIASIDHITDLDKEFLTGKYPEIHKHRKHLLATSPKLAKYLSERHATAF

[4] = viability loss of HPDE-C7K cells – cell-based, fluorescence, HTS, primary screen (AID 431); type: functional; conditions: Homo sapiens
Protein Tat = target: T2, Protein Tat (Human immunodeficiency virus type 1 group M subtype B (isolate HXB2)(HIV-1), UniProt P04608); type: functional;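 also: tat binding to TAR RNA read out by fluorescence polarization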
T2 sequence (P04608 whole entry): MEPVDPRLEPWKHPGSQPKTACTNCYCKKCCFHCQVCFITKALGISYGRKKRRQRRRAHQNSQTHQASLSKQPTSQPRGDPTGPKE

[5] = viability loss in THP-1 monocytes – THP-1 cells, cytotoxicity control for Vif-APOBEC3G degradation inhibitor project, dose response (AID 1117359); type: functional; conditions: THP-1
[6] = HPDE-C7 pancreatic duct cell viability loss – fluorescence, HTS (AID 430); type: functional, cell-based; conditions: Homo sapiens
Nonstructural protein 1 = Nonstructural protein 1 (Influenza A virus, UniProt Q194T2); type: functional, Influenza A virus (A/California/07/2009(H1N1))
[7] = target: T3, Microphthalmia-associated transcription factor (Homo sapiens, UniProt O75030); assay: reducers of TRPM1 reporter luminescence, concentration series – cell-based, SK-MEL-5, cherry-picked, set 3, MITF inhibitor project, dose response (AID 493073); type: functional;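 also: SK-MEL-5 melanoma cells with luciferase driven by the MITF target TRPM1 promoter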
T3 sequence (O75030 whole entry): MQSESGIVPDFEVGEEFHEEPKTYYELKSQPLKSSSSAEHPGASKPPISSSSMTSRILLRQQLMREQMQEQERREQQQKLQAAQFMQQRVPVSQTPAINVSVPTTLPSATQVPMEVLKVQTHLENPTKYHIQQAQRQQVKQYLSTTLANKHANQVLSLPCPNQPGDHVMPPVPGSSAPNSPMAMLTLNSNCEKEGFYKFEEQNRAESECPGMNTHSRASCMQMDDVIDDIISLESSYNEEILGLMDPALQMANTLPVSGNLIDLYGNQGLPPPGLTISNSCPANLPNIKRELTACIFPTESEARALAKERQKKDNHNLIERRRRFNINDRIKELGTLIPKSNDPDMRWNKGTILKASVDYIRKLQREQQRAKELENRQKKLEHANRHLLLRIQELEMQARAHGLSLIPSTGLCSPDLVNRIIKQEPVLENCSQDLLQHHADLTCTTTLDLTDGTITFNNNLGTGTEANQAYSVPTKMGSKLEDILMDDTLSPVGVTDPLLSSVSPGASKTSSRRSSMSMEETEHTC

A-375 [8] = assay: MITF: Counter assay: A375 proliferation Measured in Cell-Based System Using Plate Reader - 2084-03_Inhibitor_Dose_DryPowder_Activity. [Related pubchem assays (depositor defined):AID488944]; type: functional; conditions: Homo sapiens
A-375 [9] = assay: proliferation inhibition in MITF-low A375 cells – cell-based, cherry-pick samples, set 2, counter-screen for MITF modulator project, dose response (AID 540335); type: functional; conditions: Homo sapiens
H9c2 = assay: cells; type: functional, cell-based; conditions: Rattus norvegicus, H9c2, Myocardium;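 also: confirmatory concentration-response retest of ultra-high-throughput screening hits for modulation of myocardial damage; cell death induced by hydrogen peroxide oxidative stress; compound pretreatment for 60 min then peroxide exposure for 2 h; potency is for protecting the cells against peroxide damage rather than for killing them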

Induced myeloid leukemia cell differentiation protein Mcl-1, sequence (Q07820 whole entry): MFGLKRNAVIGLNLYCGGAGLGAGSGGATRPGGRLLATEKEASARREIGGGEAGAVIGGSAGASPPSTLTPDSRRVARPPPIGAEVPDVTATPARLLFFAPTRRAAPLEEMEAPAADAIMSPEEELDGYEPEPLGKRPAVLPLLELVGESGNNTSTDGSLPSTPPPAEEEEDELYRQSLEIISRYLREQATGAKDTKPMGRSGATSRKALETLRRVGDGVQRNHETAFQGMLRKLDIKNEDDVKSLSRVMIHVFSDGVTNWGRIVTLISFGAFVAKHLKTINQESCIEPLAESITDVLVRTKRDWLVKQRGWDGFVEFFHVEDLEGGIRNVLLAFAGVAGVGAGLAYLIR
Nonstructural protein 1, sequence (Q194T2 whole entry): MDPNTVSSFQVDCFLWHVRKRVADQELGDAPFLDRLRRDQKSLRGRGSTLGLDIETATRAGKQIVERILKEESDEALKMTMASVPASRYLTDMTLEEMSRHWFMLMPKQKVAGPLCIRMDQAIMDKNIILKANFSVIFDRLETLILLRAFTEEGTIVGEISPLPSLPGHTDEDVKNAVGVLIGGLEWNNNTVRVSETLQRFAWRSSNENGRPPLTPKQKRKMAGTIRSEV

Compound: COc1ccccc1NC(=O)c1cnc(Nc2ccccc2OC)c2ccccc12
- IC50 [1]: > 80 µM (inactive)

Compound: CC1CC1C(=O)OCC(=O)Nc1ccc2[nH]c(O)nc2c1 (stereo unspecified)
- IC50 [2]: 5.94 µM (active)

Compound: COC(=O)CSc1ncnc2c1sc1nc(-c3ccco3)c3c(c12)CC(C)(C)OC3
- IC50 [2]: 4.15 µM (active)

Compound: Nc1ccc(N2CCCCCC2)cc1
- IC50 [3]: 44.5 µM (active)
- EC50 [4]: 15.4 µM (active)
- IC50 (Protein Tat): 11.8 µM (inconclusive)
- CC50 [5]: 13.3 µM (active)
- EC50 [6]: 13.3 µM (active)

Compound: Cc1ccccc1/C(O)=C(\C#N)N=Nc1c(C)n(C)n(-c2ccccc2)c1=O
- IC50 (Nonstructural protein 1): 10.9 µM (active)

Compound: COc1cc(/C=N/NC(=S)NCCN2CCOCC2)cc(OC)c1O
- IC50 (Nonstructural protein 1): 70.1 µM (active)

Compound: O=C(Nc1ccc(Cl)c(S(=O)(=O)N2CCOCC2)c1)c1ccc(OCC2CCCO2)cc1 (stereo unspecified)
- IC50 [1]: 16.9 µM (active)
- AC50 [7]: 3.26 µM (active)

Compound: CC(C)C(NC(=O)OCc1ccccc1)C(=O)OCC(=O)N1CCCCC1 (stereo unspecified)
- AC50 (A-375 [8]): > 35 µM (active)
- AC50 (A-375 [9]): > 35 µM (active)

Compound: CCOc1ccc(NC(=O)c2cc3c(C)nc4ccccc4c3o2)cc1
- IC50 (H9c2): > 79 µM (inactive)
- IC50 [1]: > 80 µM (inactive)
